Where two headings read alike, the source gives them in different places.
How the values were obtained:
CLK2 = target: T1, CLK2 (Homo sapiens, UniProt P49760); test: CLK2 kinase activity assay (Z-lyte, Ser/Thr 6 peptide); assay type: biochemical; details: recombinant CLK2 kinase, ATP 60 μM; read-out: EC50
T1 construct: purchased Thermo Fisher (Life Technologies), Z'-LYTE Kinase Assay Kits
Protocol: All reactions were performed in duplicate.

BT-549 = test: CellTiter-Glo Viability Assay, breast cancer; assay type: cell-based; details: Homo sapiens, 96 h; BT-549, breast cancer, four days; read-out: EC50
CAMA1 = test: CellTiter-Glo Viability Assay, breast cancer; assay type: cell-based; details: Homo sapiens, CAMA-1, 96 h; CAMA1, breast cancer, four days; read-out: EC50
DU4475 = test: CellTiter-Glo Viability Assay, breast cancer; assay type: cell-based; details: Homo sapiens, DU-4475, 96 h; DU4475, breast cancer, four days; read-out: EC50
HCC1599 = test: CellTiter-Glo Viability Assay, breast cancer; assay type: cell-based; details: Homo sapiens, 96 h; HCC1599, breast cancer, four days; read-out: EC50
MCF7 = test: CellTiter-Glo Viability Assay, breast cancer; assay type: cell-based; details: Homo sapiens, 96 h; MCF7, breast cancer, four days; read-out: EC50
MDA-MB-231-Luc = test: CellTiter-Glo Viability Assay, breast cancer; assay type: cell-based; details: Homo sapiens, 96 h; MDA-MB-231-Luc, breast cancer, four days; read-out: EC50
T47D = test: CellTiter-Glo Viability Assay, breast cancer; assay type: cell-based; details: Homo sapiens, 96 h, breast cancer, four days, read-out: EC50
ZR-75-1 = test: CellTiter-Glo Viability Assay, breast cancer; assay type: cell-based; details: Homo sapiens, 96 h; ZR-75-1, breast cancer, four days; read-out: EC50
all 50 cell lines = test: CellTiter-Glo Viability Assay, average across all cell lines; assay type: cell-based; details: Homo sapiens; across all 50 cell lines; read-out: average EC50 for inhibition of cancer cell proliferation
Method in brief: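 Cells were plated at 300-3,000 per well in their own media, then treated with compound in duplicate, with DMSO wells as controls. After four days at 37° C and 5% CO2, CellTiter-Glo was added, and luminescence was read. EC50s were fitted.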

[1] = tested on: colorectal cancer (6 cell lines); test: CellTiter-Glo Viability Assay, colorectal cancer; assay type: cell-based; details: Homo sapiens; SW480 cell line; inhibition of cancer cell proliferation; read-out: Colorectal cancer, EC50 (μM) SW480
[2] = tested on: haematopoietic & lymphoid tumors (13 cell lines); test: CellTiter-Glo Viability Assay, haematopoietic & lymphoid tumors; assay type: cell-based; details: Homo sapiens, inhibition of cancer cell proliferation
[3] = tested on: liver cancer (3 cell lines); test: CellTiter-Glo Viability Assay, liver cancer; assay type: cell-based; details: Homo sapiens, inhibition of cancer cell proliferation
[4] = tested on: lung cancer (4 cell lines); test: CellTiter-Glo Viability Assay, lung cancer; assay type: cell-based; details: Homo sapiens, inhibition of cancer cell proliferation
[5] = tested on: ovarian cancer (4 cell lines); test: CellTiter-Glo Viability Assay, ovarian cancer; assay type: cell-based; details: Homo sapiens, inhibition of cancer cell proliferation
[6] = tested on: pancreatic cancer (8 cell lines); test: CellTiter-Glo Viability Assay, pancreatic cancer; assay type: cell-based; details: Homo sapiens, inhibition of cancer cell proliferation
[7] = tested on: prostate cancer (5 cell lines); test: CellTiter-Glo Viability Assay, prostate cancer; assay type: cell-based; details: Homo sapiens
CLK3 = CLK3 (Homo sapiens, UniProt P49761); test: CLK3 kinase activity assay (Z-lyte, Ser/Thr 18 peptide)
CLK3, sequence (P49761 whole entry): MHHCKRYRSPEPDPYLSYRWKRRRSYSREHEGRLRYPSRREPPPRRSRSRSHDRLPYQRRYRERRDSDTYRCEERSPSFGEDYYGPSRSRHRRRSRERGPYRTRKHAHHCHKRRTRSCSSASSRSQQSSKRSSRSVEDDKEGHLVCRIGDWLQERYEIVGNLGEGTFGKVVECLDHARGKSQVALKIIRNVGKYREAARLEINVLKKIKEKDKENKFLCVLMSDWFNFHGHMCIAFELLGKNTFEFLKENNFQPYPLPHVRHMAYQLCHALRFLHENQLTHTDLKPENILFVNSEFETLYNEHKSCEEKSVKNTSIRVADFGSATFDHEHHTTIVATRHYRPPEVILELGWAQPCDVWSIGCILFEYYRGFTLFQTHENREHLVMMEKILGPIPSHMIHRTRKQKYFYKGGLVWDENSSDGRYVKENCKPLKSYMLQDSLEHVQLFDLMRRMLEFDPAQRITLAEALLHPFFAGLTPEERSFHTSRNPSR

T1 sequence (P49760 whole entry): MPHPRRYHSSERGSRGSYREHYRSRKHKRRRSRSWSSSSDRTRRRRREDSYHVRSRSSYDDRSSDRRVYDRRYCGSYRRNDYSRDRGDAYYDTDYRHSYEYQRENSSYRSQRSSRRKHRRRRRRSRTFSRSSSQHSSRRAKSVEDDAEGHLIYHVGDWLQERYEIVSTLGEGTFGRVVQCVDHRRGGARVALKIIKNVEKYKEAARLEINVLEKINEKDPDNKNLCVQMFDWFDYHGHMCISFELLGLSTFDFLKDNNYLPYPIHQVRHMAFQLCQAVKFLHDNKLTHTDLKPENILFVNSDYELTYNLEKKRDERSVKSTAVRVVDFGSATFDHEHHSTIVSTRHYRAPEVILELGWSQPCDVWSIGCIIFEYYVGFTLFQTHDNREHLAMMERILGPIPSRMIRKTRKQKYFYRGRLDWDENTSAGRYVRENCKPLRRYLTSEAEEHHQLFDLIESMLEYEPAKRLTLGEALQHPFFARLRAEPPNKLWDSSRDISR

Work on `Cc1n[nH]c2ccc(-c3cncc(N[C@H]4CC[C@@H](N)CC4)n3)cc12` [Compound 64] yielded an EC50 (CLK2) of 1.7 nM, an EC50 (BT-549) of 228 nM and an EC50 (CAMA1) of 473 nM. The EC50 (DU4475) was 121 nM, the EC50 (HCC1599) was 262 nM and the EC50 (MCF7) was 633 nM. For the same molecule, the EC50 (MDA-MB-231-Luc) was 451 nM, the EC50 (T47D) was 465 nM and the EC50 (ZR-75-1) was 211 nM. The EC50 (all 50 cell lines) was 398 nM, the EC50 [1] was 0.123 µM and the EC50 ([2]; DND41, DND-41 cell line, read-out: Haematopoietic & Lymphoid tumors, EC50 (μM) DND-41) was 0.186 µM. The EC50 ([2]; MV4-11, MV-4-11 cell line, read-out: Haematopoietic & Lymphoid tumors, EC50 (μM) MV-4-11) was 0.071 µM, the EC50 ([2]; Rec1, REC-1 cell line, read-out: Haematopoietic & Lymphoid tumors, EC50 (μM) REC-1) was 0.812 µM and the EC50 ([2]; SU-DHL-4, SUDHL4 cell line, read-out: Haematopoietic & Lymphoid tumors, EC50 (μM) SUDHL4) was 0.138 µM. It also gave an EC50 ([2]; HL-60 cell line, read-out: Haematopoietic & Lymphoid tumors, EC50 (μM) HL-60) of 0.488 µM, an EC50 ([2]; JM1 cell line, read-out: Haematopoietic & Lymphoid tumors, EC50 (μM) JM1) of 0.175 µM and an EC50 ([2]; JURKAT, Clone E6-1 cell line, read-out: Haematopoietic & Lymphoid tumors, EC50 (μM) JURKAT, Clone E6-1) of 0.624 µM. The EC50 ([2]; JeKo-1 cell line, read-out: Haematopoietic & Lymphoid tumors, EC50 (μM) JeKo-1) was 0.14 µM, the EC50 ([2]; KASUMI-1 cell line, read-out: Haematopoietic & Lymphoid tumors, EC50 (μM) KASUMI-1) was 0.275 µM and the EC50 ([2]; Loucy cell line, read-out: Haematopoietic & Lymphoid tumors, EC50 (μM) Loucy) was 0.217 µM. It also gave an EC50 ([2]; MOLT-4 cell line, read-out: Haematopoietic & Lymphoid tumors, EC50 (μM) MOLT-4) of 0.383 µM, an EC50 ([2]; TF-1 cell line, read-out: Haematopoietic & Lymphoid tumors, EC50 (μM) TF-1) of 0.92 µM and an EC50 ([2]; TOLEDO cell line, read-out: Haematopoietic & Lymphoid tumors, EC50 (μM) TOLEDO) of 0.269 µM. For the same molecule, the EC50 ([3]; SNU-398, SNU398 cell line, read-out: Liver cancer, EC50 SNU398) was 59 nM, the EC50 ([3]; HEPG2 cell line, read-out: Liver cancer, EC50 HEPG2) was 402 nM and the EC50 ([3]; PLC/PRF/5 cell line, read-out: Liver cancer, EC50 PLC/PRF/5) was 1490 nM. It also gave an EC50 ([4]; A-427, A427 cell line, read-out: Lung cancer, EC50 (μM) A427) of 0.243 µM, an EC50 ([4]; HCC78, HCC-78 cell line, read-out: Lung cancer, EC50 (μM) HCC-78) of 0.725 µM and an EC50 ([4]; NCI-H460 cell line, read-out: Lung cancer, EC50 (μM) NCI-H460) of 0.759 µM. It also gave an EC50 ([4]; NCI-H522 cell line, read-out: Lung cancer, EC50 (μM) NCI-H522) of 0.396 µM, an EC50 ([5]; PA-1, PA1 cell line, read-out: Ovarian cancer, EC50 (μM) PA1) of 0.2 µM and an EC50 ([5]; TOV112D, TOV-112D cell line, read-out: Ovarian cancer, EC50 (μM) TOV-112D) of 0.155 µM. It also gave an EC50 ([5]; OV-90 cell line, read-out: Ovarian cancer, EC50 (μM) OV-90) of 0.179 µM, an EC50 ([5]; OVCAR-3 cell line, read-out: Ovarian cancer, EC50 (μM) OVCAR-3) of 0.127 µM and an EC50 ([6]; BXPC-3, BxPC3 cell line, read-out: Pancreatic cancer, EC50 BxPC3) of 365 nM. The EC50 ([6]; CAPAN-1, Capan1 cell line, read-out: Pancreatic cancer, EC50 Capan1) was 498 nM, the EC50 ([6]; Capan-2, Capan2 cell line, read-out: Pancreatic cancer, EC50 Capan2) was 361 nM and the EC50 ([6]; MIA PaCa-2 cell line, read-out: Pancreatic cancer, EC50 MIA PaCa-2) was 157 nM. The EC50 ([6]; PANC 05.04 cell line, read-out: Pancreatic cancer, EC50 PANC 05.04) was 427 nM, the EC50 ([6]; PANC-1 cell line, read-out: Pancreatic cancer, EC50 PANC-1) was 815 nM and the EC50 ([6]; UPAFII cell line, read-out: Pancreatic cancer, EC50 UPAFII) was 403 nM. The EC50 ([7]; DU-145, read-out: Prostate cancer EC50 Du-145) was 543 nM, the EC50 ([7]; PC-3, PC3 cell line, inhibition of cancer cell proliferation, read-out: Prostate cancer EC50 PC3) was 294 nM and the EC50 ([7]; 22Rv1 cell line, inhibition of cancer cell proliferation, read-out: Prostate cancer EC50 22Rv1) was 379 nM. For the same molecule, the EC50 ([7]; LNCap clone FGC cell line, inhibition of cancer cell proliferation, read-out: Prostate cancer EC50 LNCap clone FGC) was 636 nM, the EC50 ([7]; VCaP (Sigma) cell line, inhibition of cancer cell proliferation, read-out: Prostate cancer EC50 VCaP (Sigma)) was 616 nM and the EC50 (CLK3) was 482 nM.

— patent US20220062240A1, “METHODS OF TREATING CANCER USING A CLK INHIBITOR” (BioSplice Therapeutics, Inc., priority 2018, published 2022)
